# Measured values reported in ChEMBL document CHEMBL3297736, “Rational improvement of the affinity and selectivity of integrin binding of grafted lasso peptides” (J Med Chem, 2014).
# Peptide text beside a SMILES is read from it.
# Columns and labels:
# [1] = molecular target: Integrin alpha-IIb/beta-3 (Homo sapiens, UniProt P05106+P08514); assay: Inhibition of fibrinogen binding to human alpha2b/beta3 integrin after 1 hr by ELISA; assay type: protein-complex assay
# [2] = molecular target: Integrin alpha-V/beta-5 (Homo sapiens, UniProt P06756+P18084); assay: Inhibition of vitronectin binding to human alphaVbeta5 integrin after 1 hr by ELISA; assay type: protein-complex assay
# Chain of Integrin alpha-V/beta-5 (P06756 31-889 limits assumed): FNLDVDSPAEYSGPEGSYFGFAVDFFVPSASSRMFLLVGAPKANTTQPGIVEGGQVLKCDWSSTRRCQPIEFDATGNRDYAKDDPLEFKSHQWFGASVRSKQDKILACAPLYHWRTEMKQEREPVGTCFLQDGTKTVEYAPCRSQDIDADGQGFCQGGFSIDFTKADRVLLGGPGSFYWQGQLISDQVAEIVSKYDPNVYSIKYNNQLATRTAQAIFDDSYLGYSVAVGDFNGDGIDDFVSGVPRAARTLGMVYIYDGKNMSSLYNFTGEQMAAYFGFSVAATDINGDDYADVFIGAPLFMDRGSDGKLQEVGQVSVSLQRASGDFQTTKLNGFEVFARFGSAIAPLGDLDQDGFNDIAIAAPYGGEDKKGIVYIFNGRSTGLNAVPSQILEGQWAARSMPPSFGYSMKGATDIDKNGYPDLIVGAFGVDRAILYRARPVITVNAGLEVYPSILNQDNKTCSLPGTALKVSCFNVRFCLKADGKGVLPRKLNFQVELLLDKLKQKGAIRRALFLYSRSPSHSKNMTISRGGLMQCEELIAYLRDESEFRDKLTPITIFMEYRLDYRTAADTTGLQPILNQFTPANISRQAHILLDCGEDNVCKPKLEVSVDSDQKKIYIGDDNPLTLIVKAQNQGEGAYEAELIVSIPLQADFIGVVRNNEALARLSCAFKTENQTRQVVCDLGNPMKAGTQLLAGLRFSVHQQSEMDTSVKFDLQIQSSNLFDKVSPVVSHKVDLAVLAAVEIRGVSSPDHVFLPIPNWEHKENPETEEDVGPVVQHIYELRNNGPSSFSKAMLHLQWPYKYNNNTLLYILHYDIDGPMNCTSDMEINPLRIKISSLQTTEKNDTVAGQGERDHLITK
# Chain of Integrin alpha-V/beta-5 (P06756 891-1048 limits assumed): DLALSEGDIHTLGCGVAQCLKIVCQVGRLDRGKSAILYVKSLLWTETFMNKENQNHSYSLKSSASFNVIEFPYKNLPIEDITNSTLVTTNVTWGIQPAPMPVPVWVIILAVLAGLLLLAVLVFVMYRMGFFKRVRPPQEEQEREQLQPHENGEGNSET
# Chain of Integrin alpha-V/beta-5 (P18084 24-799 limits assumed): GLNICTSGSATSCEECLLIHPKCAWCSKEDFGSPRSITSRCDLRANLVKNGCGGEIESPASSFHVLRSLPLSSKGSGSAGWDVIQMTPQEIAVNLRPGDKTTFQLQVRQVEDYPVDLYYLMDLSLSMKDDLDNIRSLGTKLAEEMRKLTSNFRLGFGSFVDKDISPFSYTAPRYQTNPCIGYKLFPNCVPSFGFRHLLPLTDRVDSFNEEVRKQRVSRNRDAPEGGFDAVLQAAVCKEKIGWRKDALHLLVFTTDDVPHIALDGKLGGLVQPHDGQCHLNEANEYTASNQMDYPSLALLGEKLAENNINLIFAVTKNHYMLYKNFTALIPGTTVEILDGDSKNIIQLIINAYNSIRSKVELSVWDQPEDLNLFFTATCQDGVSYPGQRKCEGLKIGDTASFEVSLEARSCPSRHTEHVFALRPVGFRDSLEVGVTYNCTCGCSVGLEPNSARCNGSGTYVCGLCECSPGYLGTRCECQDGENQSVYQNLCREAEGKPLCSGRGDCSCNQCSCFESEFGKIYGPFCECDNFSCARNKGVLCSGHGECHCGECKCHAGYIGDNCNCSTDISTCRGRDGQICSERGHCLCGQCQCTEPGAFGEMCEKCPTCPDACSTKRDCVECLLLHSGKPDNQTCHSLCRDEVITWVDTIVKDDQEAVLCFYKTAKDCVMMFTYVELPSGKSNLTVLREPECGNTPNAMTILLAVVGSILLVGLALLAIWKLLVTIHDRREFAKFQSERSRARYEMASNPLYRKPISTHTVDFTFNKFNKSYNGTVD
# [3] = molecular target: T1, Integrin alpha-V/beta-3 (Homo sapiens, UniProt P05106+P06756); assay: Inhibition of vitronectin binding to human alphaVbeta3 integrin after 2 hrs by ELISA; assay type: protein-complex assay
# Target sequence in this assay (P05106 27-788 limits assumed): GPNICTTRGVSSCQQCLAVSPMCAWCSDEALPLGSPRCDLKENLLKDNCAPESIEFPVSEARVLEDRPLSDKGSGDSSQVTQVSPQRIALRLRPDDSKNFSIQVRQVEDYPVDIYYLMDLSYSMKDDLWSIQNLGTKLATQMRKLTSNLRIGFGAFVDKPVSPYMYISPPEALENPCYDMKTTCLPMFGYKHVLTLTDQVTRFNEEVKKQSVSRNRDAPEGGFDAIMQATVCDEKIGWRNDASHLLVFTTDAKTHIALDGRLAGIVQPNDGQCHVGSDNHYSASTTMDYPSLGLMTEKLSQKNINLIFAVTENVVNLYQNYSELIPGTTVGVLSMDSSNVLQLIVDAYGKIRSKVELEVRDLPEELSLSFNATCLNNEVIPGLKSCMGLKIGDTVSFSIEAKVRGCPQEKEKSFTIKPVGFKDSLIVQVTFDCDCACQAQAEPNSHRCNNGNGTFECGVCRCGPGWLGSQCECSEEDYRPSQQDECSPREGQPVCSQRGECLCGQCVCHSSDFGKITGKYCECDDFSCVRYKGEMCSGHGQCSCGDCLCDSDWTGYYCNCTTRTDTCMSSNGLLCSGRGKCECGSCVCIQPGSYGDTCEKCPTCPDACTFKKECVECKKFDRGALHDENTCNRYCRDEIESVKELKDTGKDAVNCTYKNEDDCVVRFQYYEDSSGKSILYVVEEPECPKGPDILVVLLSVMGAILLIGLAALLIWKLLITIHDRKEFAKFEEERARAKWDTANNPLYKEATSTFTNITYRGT
# Target sequence in this assay (P06756 31-889 limits assumed): as the sequence (P06756 31-889 limits assumed) above
# Target sequence in this assay (P06756 891-1048 limits assumed): as the sequence (P06756 891-1048 limits assumed) above
# [4] = molecular target: T1, Integrin alpha-V/beta-3; assay: Inhibition of alphavbeta3 integrin-mediated cell adhesion in HUVEC after 15 mins by matrigel assay; assay type: protein-complex assay
# [5] = molecular target: T1, Integrin alpha-V/beta-3; assay: Inhibition of alphavbeta3 integrin-mediated capillary tube formation in HUVEC after 16 hrs by matrigel assay; assay type: protein-complex assay
# [6] = organism: Homo sapiens; assay: Selectivity ratio IC50 for human alpha2b/beta3 integrin to IC50 for human alphaVbeta3 integrin
# [7] = molecular target: Integrin alpha-5/beta-1 (Homo sapiens, UniProt P05556+P08648); assay: Inhibition of fibronectin binding to human alpha5beta1 integrin after 1 hr by ELISA; assay type: protein-complex assay
# Chain of Integrin alpha-IIb/beta-3 (P05106 27-788 limits assumed): as the sequence (P05106 27-788 limits assumed) above
# Chain of Integrin alpha-IIb/beta-3 (P08514 32-887 limits assumed): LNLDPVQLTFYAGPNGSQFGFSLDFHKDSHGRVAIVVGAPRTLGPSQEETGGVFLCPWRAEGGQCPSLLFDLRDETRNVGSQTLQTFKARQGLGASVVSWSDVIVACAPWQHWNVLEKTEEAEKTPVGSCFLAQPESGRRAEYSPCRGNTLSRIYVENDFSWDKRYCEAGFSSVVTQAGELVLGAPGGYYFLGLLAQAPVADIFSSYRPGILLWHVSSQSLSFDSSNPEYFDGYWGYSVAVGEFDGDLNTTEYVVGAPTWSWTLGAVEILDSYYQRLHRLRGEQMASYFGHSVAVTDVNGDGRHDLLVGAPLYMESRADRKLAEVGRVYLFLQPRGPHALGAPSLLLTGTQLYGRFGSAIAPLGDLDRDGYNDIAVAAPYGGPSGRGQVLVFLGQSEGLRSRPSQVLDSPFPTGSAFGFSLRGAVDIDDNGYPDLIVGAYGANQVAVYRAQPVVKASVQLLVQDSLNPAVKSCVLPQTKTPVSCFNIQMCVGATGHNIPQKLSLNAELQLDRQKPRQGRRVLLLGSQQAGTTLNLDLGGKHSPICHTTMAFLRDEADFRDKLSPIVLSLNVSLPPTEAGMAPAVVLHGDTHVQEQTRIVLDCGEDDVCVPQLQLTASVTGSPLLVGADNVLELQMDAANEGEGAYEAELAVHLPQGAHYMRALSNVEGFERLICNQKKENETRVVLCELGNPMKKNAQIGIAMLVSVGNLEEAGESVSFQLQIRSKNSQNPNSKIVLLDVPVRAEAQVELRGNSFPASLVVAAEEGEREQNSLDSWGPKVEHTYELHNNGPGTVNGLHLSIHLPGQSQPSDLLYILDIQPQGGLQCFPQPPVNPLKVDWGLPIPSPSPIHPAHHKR
# Chain of Integrin alpha-IIb/beta-3 (P08514 891-1039 limits assumed): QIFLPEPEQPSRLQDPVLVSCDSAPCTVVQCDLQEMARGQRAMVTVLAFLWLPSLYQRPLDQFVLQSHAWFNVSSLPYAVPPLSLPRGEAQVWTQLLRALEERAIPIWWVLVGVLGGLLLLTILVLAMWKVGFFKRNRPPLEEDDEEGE
IC50 [1] [µM],IC50 [2] [µM],IC50 [3] [µM],inhibition [4],inhibition [5],Ratio IC50 [6],IC50 [7] [µM],SMILES
130,38,12,,,,,N=C(N)NCCC[C@H](N)C(=O)NCC(=O)N[C@@H](CC(=O)O)C(=O)O
,,,Dose-dependent effect,Dose-dependent effect,,,NC(N)=NCCC[C@H](N)C(=O)NCC(=O)N[C@@H](CC(=O)O)C(=O)O
725,92,4.1,Dose-dependent effect,Dose-dependent effect,177,1550,N=C(N)NCCC[C@H](N)C(=O)NCC(=O)N[C@@H](CC(=O)O)C(=O)N[C@@H](Cc1ccccc1)C(=O)O (H-RGDF-OH)
